Measurements reported in patent publication US20240307220A1, “Combination Therapy to Treat Temperature Sensitive Mutant Tumors” (H. LEE MOFFITT CANCER CENTER AND RESEARCH INSTITUTE INC., priority 2021, published 2024).

Legend:
GA10-p53KO tumors = assay: GA10-p53KO subcutaneous tumor xenografts in nude mice treated with CPT and hypothermia; type: in vivo; details: 32 hr×5 format
Protocol: (§1) FIGS. 7A to 7E show hypothermia cooperates with chemotherapy to induce regression of tumors expressing ts p53. […] CPT (1.5 mg/kg) was given at the beginning of each hypothermia cycle. Average size of tumors was plotted over time (mean±SD). FIG. 7B contains pictures of a GA10 partial response tumor before and after treatment. FIG. 7C is a waterfall plot showing combined results of 3 experiments. Tumors with durable remission are marked as “cured”. FIG. 7D contains individual growth curves of representative GA10 tumors from FIG. 7A that achieved durable remission after treatment. FIG. 7E contains individual growth curves of GA10 tumors from FIG. 7A that relapsed and received re-treatment.
Animal experiment. Animal experiments were reviewed and approved by the University of South Florida IACUC. Athymic female nude mice (6-week old, Athymic Nude-Foxn1nu, Envigo) were injected subcutaneously with 0.1 ml 1:1 slurry of Matrigel (VWR 47743-715) and 1×10^7 cells in PBS at each site. The inoculated mice were housed in a cabinet set to 28° C. (ARIA BIO-C36 ventilated cabinet, TECNIPLAST) to ensure that tumors develop at ˜37° C. […] The mice were kept in the 28° C. cabinet and monitored using infrared thermal imaging camera (FLIR ONE Pro, FLIR® Systems, Inc.) to verify that body temperature was maintained at ˜32° C. […]

GA10 tumors = assay: GA10 subcutaneous tumor xenografts in nude mice treated with CPT with or without hypothermia; type: in vivo
Protocol: as §1
FIGS. 14A to 14D show effect of low-dose CPT treatment alone on tumor growth. […] Tumor growth at 37° C. (without hypothermia treatment) was determined at indicated time points. […] Tumor growth at 37° C. (without hypothermia treatment) was determined at indicated time points. […] When tumors reached approximately 100 mm^3 the mice were injected i.p. with 1.5 mg/kg CPT every 3 days. Tumor growth was monitored over time (mean±SD). […] Average size of tumors was plotted over time.
Animal experiment. Animal experiments were reviewed and approved by the University of South Florida IACUC. Athymic female nude mice (6-week old, Athymic Nude-Foxn1nu, Envigo) were injected subcutaneously with 0.1 ml 1:1 slurry of Matrigel (VWR 47743-715) and 1×10^7 cells in PBS at each site. The inoculated mice were housed in a cabinet set to 28° C. (ARIA BIO-C36 ventilated cabinet, TECNIPLAST) to ensure that tumors develop at ˜37° C. Each mouse received injections at 2 sites, tumors formed at >80% of sites injected with GA10 cells. N^6-cyclohexyladenosine (CHA, Sigma C9901) was dissolved at 20 mg/ml in 25% (2-Hydroxypropyl)-β-cyclodextrin (w/v, Sigma H107) and heated at 65° C. for 10 min to ensure dissolution. Camptothecin (CPT, Santa Cruz Biotechnology sc-200871B) was freshly dissolved in 1 N NaOH, diluted to ˜0.5 mg/ml with saline, and adjusted to pH10 using HCl. To induce hypothermia, 0.2 ml saline+10% glucose containing CHA and CPT was administered by intra peritoneal injection to provide a CHA dosage of 10 mg/kg body weight and CPT (when indicated) dosage of 1.5 mg/kg body weight. The mice were kept in the 28° C. cabinet and monitored using infrared thermal imaging camera (FLIR ONE Pro, FLIR® Systems, Inc.) to verify that body temperature was maintained at ˜32° C. A second injection of CHA (10 mg/kg) in 0.4 ml saline+10% glucose was given after 10 hours to maintain hypothermia for ˜24 hours. A third injection of CHA (10 mg/kg) in 0.4 ml saline+10% glucose was given after 10 hours to maintain hypothermia for ˜32 hours. […]

[1] = system: P53 binding to PUMA promoter; assay: ChIP of p53 binding to PUMA promoter in H1299 stably expressing p53 mutants; type: cell-based, human; details: 0.5 μM CPT at 32° C. for 20 hrs
Protocol: FIGS. 1B and 1C show representative p53 ts mutants stably expressed in H1299 cells tested for induction of target gene expression after 20 hrs at 32° C. CPT (0.5 μM for 20 hrs) was added when cells were shifted to 32° C. […] P53 binding to PUMA promoter was determined by ChIP. The results are average of 3 experiments (mean±SD).
Chromatin immunoprecipitation (ChIP). ChIP assay was performed using standard procedure. Crosslinked p53-DNA complexes were immunoprecipitated with DO-1 antibody. Samples were subjected to SYBR Green real-time PCR analysis using forward and reverse primers for the p53 binding sites in the p21 promoter ([…] (SEQ ID NO:7) and […] (SEQ ID NO:8)), and PUMA promoter ([…] (SEQ ID NO:9) and […] (SEQ ID NO:10)).

UC3 bladder cancer cells = assay: UC3 colony formation after 2 hrs drug treatment, washout and 32° C. or 37° C. incubation; type: cell-based; details: 2 hrs drug at 37° C., washout, 32° C. vs 37° C. 24 hrs, then 7 days at 37° C.
Protocol: FIGS. 17A and 17B show hypothermia treatment given after chemotherapy enhances drug response in bladder cancer. […] The washed cells were incubated at 32° C. or 37° C. for 24 hrs, followed by 7 days at 37° C. and crystal violet staining for colony formation.
Standard bladder intravesical chemotherapy involves 1-2 hr irrigation with drugs at 37° C. or 42° C. The effect of treating cells with 32° C. hypothermia after chemotherapy was tested to avoid interference with drug uptake. TS mutant p53 activation peaks 6-8 hrs after shift to 32° C., which should cooperate with chemotherapy-induced DNA damage to induce cell death. […] Saline irrigation of up to 24 hrs is routinely performed after transurethral resection of bladder tumor (TURBT) procedure to prevent clotting. Therefore, irrigation with cooled saline after intravesical chemotherapy is expected to be well-tolerated and safe.

CC[C@@]1(O)C(=O)OCc2c1cc1n(c2=O)Cc2cc3ccccc3nc2-1 [CPT, Camptothecin]
GA10-p53KO complete response or durable remission (GA10-p53KO tumors; CPT 1.5 mg/kg and 32° C. hypothermia): did not achieve complete response or durable remission
GA10-p53KO tumor size change (GA10-p53KO tumors; p53-independent effects of CPT and hypothermia): modest shrinkage
GA10 tumor growth, CPT alone (GA10 tumors; 1.5 mg/kg CPT i.p., 37° C., no hypothermia): modestly inhibited GA10 tumor growth at 37 °C but did not cause shrinkage
response to CPT, GA10 versus GA10-p53KO tumors (GA10 tumors; 1.5 mg/kg CPT, 37° C. body temperature (p53 inactive)): no difference in response to CPT
GA10 tumor response to hypothermia+CPT combination (GA10 tumors; CPT 1.5 mg/kg, 32° C. hypothermia, 32 hr×5 format): significant regression
GA10 tumors that did not relapse (GA10 tumors; hypothermia+CPT, 32 hr×5 format, 50-day observation period after stopping treatment (12/37)): 32%
PUMA promoter binding by the ts mutants (ChIP) [1]: further stimulated the binding
effect of 32° C. for 24 hrs after drug on growth inhibition (colony formation) (UC3 bladder cancer cells): significantly increased the growth inhibition potency
